Results from paper PMC3147111 (European journal of immunology, 2010).

Biological target: DRB1*1501 (Homo sapiens, UniProt P01903+P01911)
Assay: biochemical
Type: binding

**Q.** For `CC(C)C[C@H](NC(=O)[C@H](Cc1ccc(O)cc1)NC(=O)[C@H](C)NC(=O)[C@H](CCCNC(=N)N)NC(=O)[C@H](CC(C)C)NC(=O)[C@H](CCC(N)=O)NC(=O)[C@H](CCC(=O)O)NC(=O)[C@H](C)NC(=O)[C@@H](N)CCC(=O)O)C(=O)N[C@@H](CC(=O)O)C(=O)NCC(=O)N[C@H](C(=O)NCC(=O)N[C@H](C(=O)N[C@@H](CCC(=O)O)C(=O)O)C(C)C)[C@@H](C)O` [A3 152–166], which IC50 is on record?
**A.** 0.048 µM
